Experiments:
HepG2 cells = assay: Test Example 2: inhibition of apolipoprotein B secretion from HepG2 cells, ELISA (also used for metabolites in Test Example 8); type: cell-based; settings: Homo sapiens, 24 hours, apo B in supernatant by ELISA, read-out: Test Example 2 Inhibition of apo B secretion IC50
How it was run: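 HepG2 cells cultured 24 h, then exposed 24 h to compounds or metabolites in medium with 0.5% DMSO. Secreted apo B in supernatant quantified by sandwich ELISA (HRP, ABTS, 405 nm) against purified human apo B standard; % inhibition vs DMSO group, IC50 derived.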

Syrian hamsters = assay: Test Example 3: olive oil-loading test (inhibition of fat absorption, plasma TG); type: in vivo; settings: Mesocricetus auratus, po, plasma TG 4 hours after olive oil, read-out: Test Example 3 Inhibition of fat absorption after olive oil-loading in Hamster Inhibition rate (%); for inhibition in vivo at 3 mg/kg: 3 mg/kg p.o.; for inhibition in vivo at 10 mg/kg: 10 mg/kg p.o.
Method: Syrian hamsters (9-11 weeks of age) under non-fasted conditions were used in the test. Blood was collected previously from orbital venous plexus, and a sample was suspended in 0.5% methyl cellulose (vehicle) and the suspension was forced to be administered orally to the hamsters at a dose of 0.3, 1, 3 or 10 mg/2 mL/kg. Only vehicle in the same volume was administered to the control group. Olive oil (2 mL/kg) was forced to be administered orally 30 minutes after the administration of the sample, and blood was collected from orbital venous plexus 4 hours later. Plasma was recovered from the blood, and the amount of triglyceride (TG) in the plasma was determined by automatic analyzer (Hitachi Co.). The data was expressed in terms of ΔTG(mg/dL)=the value at 4th hr minus the value before administration. Inhibition rate (%) was calculated from the data obtained on the basis of the following equation.
Inhibition rate (%)=100×(1 minus ΔTG of sample group/ΔTG of control group).

IC50 (HepG2 cells) [nM] | Compound | inhibition in vivo at 3 mg/kg (Syrian hamsters) [%] | inhibition in vivo at 10 mg/kg (Syrian hamsters) [%]
0.44 | CCOC(=O)C(COC(=O)Cc1ccc(NC(=O)c2ccccc2-c2ccc(C(F)(F)F)cc2)c(C(=O)N2CCCC2)c1)(C(=O)OCC)c1ccccc1 [Example 2-22] | 61 | –
0.55 | CCOC(=O)C(COC(=O)Cc1ccc(NC(=O)c2ccccc2-c2ccc(C(F)(F)F)cc2)c(C(=O)N(C)C)c1)(C(=O)OCC)c1ccccc1 [Example 2-5] | 70 | –
1.5 | CCNC(=O)C(COC(=O)Cc1ccc(NC(=O)c2ccccc2-c2ccc(C(F)(F)F)cc2)c(C(=O)N(C)C)c1)(C(=O)NCC)c1ccccc1 [Example 2, {3-Dimethylcarbamoyl-4-[(4′-trifluoromethylbiphenyl-2-carbonyl)amino]phenyl}acetic acid 2,2-bisethylcarbamoyl-2-phenylethyl ester] | – | 95
5.8 | CCNC(=O)C(COC(=O)Cc1ccc(NC(=O)c2ccccc2-c2ccc(C(F)(F)F)cc2)cc1)(C(=O)NCC)c1ccccc1 [Example 1, 4-[(4′-Trifluoromethylbiphenyl-2-carbonyl)amino]phenyl-acetic acid 2,2-bisethylcarbamoyl-2-phenylethyl ester] | – | –
0.29 | CCNC(=O)C(CCOC(=O)Cc1ccc(NC(=O)c2ccccc2-c2ccc(C(F)(F)F)cc2)c(C(=O)N(C)C)c1)(C(=O)NCC)c1ccccc1 [Example 2-4] | 78 | –
5.5 | O=C(Cc1ccc(NC(=O)c2ccccc2-c2ccc(C(F)(F)F)cc2)cc1)OCC1(C(=O)NCC(F)(F)F)c2ccccc2-c2ccccc21 [Example 1-6] | – | 54
2 | CCNC(=O)C(COC(=O)Cc1ccc(NC(=O)c2ccccc2-c2ccc(C(F)(F)F)cc2)c(C(=O)NC)c1)(C(=O)NCC)c1ccccc1 [Example 2-3] | 68 | –
1.3 | CCCNC(=O)C(COC(=O)Cc1ccc(NC(=O)c2ccccc2-c2ccc(C(F)(F)F)cc2)c(C(=O)N(C)C)c1)(C(=O)NCCC)c1ccccc1 [Example 2-2] | – | 96
170 | COC(=O)C(COC(=O)Cc1ccc(NC(=O)c2ccccc2-c2ccc(C(F)(F)F)cc2)cc1)(C(=O)OC)c1ccccc1 [Example 1-13] | – | –
0.63 | CCNC(=O)C(CCOC(=O)Cc1ccc(NC(=O)c2ccccc2-c2ccc(C(F)(F)F)cc2)c(OC)c1)(C(=O)NCC)c1ccccc1 [Example 3-6] | 52 | –
0.76 | COC(=O)C(COC(=O)Cc1ccc(NC(=O)c2ccccc2-c2ccc(C(F)(F)F)cc2)c(C(=O)N(C)C)c1)(C(=O)OC)c1ccccc1 [Example 2-39] | 68 | –
6.9 | CCCNC(=O)C(COC(=O)Cc1ccc(NC(=O)c2ccccc2-c2ccc(C(F)(F)F)cc2)cc1)(C(=O)NCCC)c1ccccc1 [Example 1-35] | – | –
1 | CCNC(=O)C(COC(=O)Cc1ccc(NC(=O)c2ccccc2-c2ccc(C(F)(F)F)cc2)c(OC)c1)(C(=O)NCC)c1ccccc1 [Example 3-3] | – | 78
0.31 | CCNC(=O)C(COC(=O)Cc1ccc(NC(=O)c2ccccc2-c2ccc(C(F)(F)F)cc2)c(OC(C)C)c1)(C(=O)NCC)c1ccccc1 [Example 3-10] | 85 | –
0.56 | CCNC(=O)C(CCCOC(=O)Cc1ccc(NC(=O)c2ccccc2-c2ccc(C(F)(F)F)cc2)c(C(=O)N(C)C)c1)(C(=O)NCC)c1ccccc1 [Example 2-7] | 58 | –
0.38 | CCNC(=O)C(CCOC(=O)Cc1ccc(NC(=O)c2ccccc2-c2ccc(C(F)(F)F)cc2)c(OCC)c1)(C(=O)NCC)c1ccccc1 [Example 3-8] | 60 | –
63 | O=C(Cc1ccc(NC(=O)c2ccccc2-c2ccc(C(F)(F)F)cc2)cc1)OCC(C(=O)NCC(F)(F)F)(C(=O)NCC(F)(F)F)c1ccccc1 [Example 1-12] | – | –
0.65 | CCNC(=O)C(COC(=O)Cc1ccc(NC(=O)c2ccccc2-c2ccc(C(F)(F)F)cc2)c(CC)c1)(C(=O)NCC)c1ccccc1 [Example 1-5, {3-Ethyl-4-[(4′-trifluoromethylbiphenyl-2-carbonyl)amino]phenyl}acetic acid 2,2-bisethylcarbamoyl-2-phenylethyl ester] | 59 | –

Compound | IC50 (HepG2 cells) [nM] | inhibition in vivo at 3 mg/kg (Syrian hamsters) [%] | inhibition in vivo at 10 mg/kg (Syrian hamsters) [%]
CCOC(=O)C(COC(=O)Cc1ccc(OC(=O)c2ccccc2-c2ccc(C(F)(F)F)cc2)cc1)(C(=O)OCC)c1ccccc1 [Example 1-2, 2-Phenyl-2-{2-[4-(4′-trifluoromethylbiphenyl-2-carbonyloxy)phenyl]acetoxymethyl}malonic acid diethyl ester] | 850 | – | –

From patent publication US7625948B2, “Ester compound and medicinal use thereof” (Japan Tobacco Inc., priority 2002, dated 2009)
